Data as given in EP4389156A1, “RA[…] LIGAND COMPOUNDS AND PRECURSORS THEREOF” (Technische Universität München, priority 2022, dated 2024).
Values joined by “and” are separate entries in the source; they are usually repeats but may differ in a detail not shown here. Equal entries are not always repeated.

Assays:
[1] = molecular target: T1, PSMA (Homo sapiens, UniProt Q04609); experiment: Competitive binding study, inverse IC50 (99mTc-radioligand versus increasing IBA-KuE); conditions: inverse IC50: IBA-KuE competes against 99mTc-radioligand (0.2 nM/well); higher values = higher affinity; 1 h, 4°C, n = 3, mean ± SD; read-out: IC50, inv.
T1 construct: endogenous in cells; printed for the internalization assay of the same paragraph
Experimental: Competitive binding studies were carried out in analogy to a previously reported procedure. As a modification the non-radiolabeled standard competitor (((S)-1-carboxy-5-(4-(iodo)benzamido)pentyl)carbamoyl)-L-glutamic acid (IBA-KuE) was applied in increasing concentrations (10^-5 - 10^-11 M/well, n = 3 each) whereas the novel PSMA-binding compounds of interest were applied as ^99mTc-labeled radioligands (0.2 nM/well). In this inversed experimental approach, higher values correspond to higher affinities and are referred to as inverse IC50. Poly-L-lysine coated 24-well plates were used (n = 3). Data are given as mean ± SD. To determine the cellular uptake of the ^99mTc-labeled PSMA ligands into LNCaP cells by means of PSMA-mediated internalization at 1 h, a previously reported protocol was applied with assay concentrations of 1.0 nM and 0.2 nM for ^99mTc-labeled PSMA ligands and the reference compound [^125I]IBA-KuE, respectively. Data are corrected for non-specific binding and normalized to the specific internalization of the reference. Results are given as mean ± SD.

[2] = molecular target: T2, human serum albumin (HSA) (Homo sapiens, UniProt P02768); experiment: HSA binding by high performance affinity chromatography (HPAC); format: in vitro ADME; conditions: uncomplexed compounds, n = 1
T2 construct: purchased Daicel, Tokyo, Japan H13H-2433
Experimental: HSA binding of the uncomplexed PSMA ligands was determined according to a previously published procedure via HPLC (Valko, K.; Nunhuck, S.; Bevan, C.; Abraham, M. H.; Reynolds, D. P., Fast gradient HPLC method to determine compounds binding to human serum albumin. Relationships with octanol/water and immobilized artificial membrane lipophilicity. J Pharm Sci. 2003, 92, 2236-2248). A Chiralpak HSA column (50 × 3 mm, 5 µm, H13H-2433, Daicel, Tokyo, Japan) was used at a constant flow rate of 0.5 mL/min at rt. Mobile phase A was a freshly prepared 50 mM aqueous solution of NH4OAc (pH 6.9) and mobile phase B was isopropanol (HPLC grade, VWR). The applied gradient for all experiments was 100% A (0 to 3 min), followed by 80% A (3 to 40 min). Prior to the experiment, the column was calibrated using nine reference substances with a HSA binding, known from literature, in the range of 13 to 99% (Valko, K.; Nunhuck, S.; Bevan, C.; Abraham, M. H.; Reynolds, D. P., J Pharm Sci. 2003, 92, 2236-2248; Yamazaki, K.; Kanaoka, M., Computational prediction of the plasma protein-binding percent of diverse pharmaceutical compounds. J Pharm Sci. 2004, 93, 1480-1494). All substances, including the examined PSMA ligands, were dissolved in a 1:1 mixture (v/v) of isopropanol and a 50 mM aqueous solution of NH4OAc (pH 6.9) with a final concentration of 0.5 mg/mL. Non-linear regression was established with the OriginPro 2016G software (Northampton, United States).

[3] = test system: LNCaP tumor-bearing CB17-SCID mice; experiment: Biodistribution study in LNCaP tumor-bearing mice; format: in vivo
Experimental: All animal experiments were conducted in accordance with general animal welfare regulations in Germany (German animal protection act, in the edition of the announcement, dated May 18th, 2006, as amended by Article 280 of June 19th 2020, approval no. ROB-55.2-1-2532.Vet_02-18-109 by the General Administration of Upper Bavaria) and the institutional guidelines for the care and use of animals. Male CB17-SCID mice were purchased from Charles River (Sulzfeld, Germany) and arrived at the in-house animal facility to acclimate at least 1 week before the start of the experiment. Tumor xenografts were established by subcutaneous inoculation of LNCaP cells (approx. 2 × 10^7 cells in 200 µL of a 1:1 mixture of Cultrex BME (R&D Systems, Minneapolis, United States) and DMEM/Ham's F-12) onto the right shoulder of 6-8 weeks old male CB17-SCID mice. The animals were used for experiments when tumors had grown to a size of 5-10 mm in diameter. Criteria for the exclusion of animals from the experiment were weight loss higher than 20%, tumor size above 1.5 cm^3, ulceration of the tumor, respiratory distress or change of behavior. […] Neither randomisation nor blinding was applied in the allocation of the experiments. Quarterly health monitoring was performed according to the FELASA recommendations.
Biodistribution Studies. The ^99mTc-labeled radioligands (2.7 ± 0.7 MBq, 82 ± 20 pmol) were injected into a lateral tail vein of LNCaP-tumor bearing mice (n = 4-5) under isoflurane anesthesia. Animals were sacrificed at 6 h post injection (p.i.) by carbon dioxide inhalation and blood withdrawal via cardiac puncture. Blood and tissues of interest were collected, weighed and the activity measured in a γ-counter. Radioligand uptake is given in percent of the injected dose per gram of tissue (% ID/g) and results are presented as mean ± SD.
In line with the above, the biodistribution study of [^99mTc]Tc-N4-PSMA-21 was carried out with n = 5 animals ("data set I"). […] Kidney uptake of mouse #3 (36.17 %ID/g) exceeded the value obtained from the other four animals (4.58 ± 1.44 %ID/g, mean ± SD) 7.9-fold or by more than 20 standard deviations. In addition, tumor uptake of mouse #3 (21.92 %ID/g) exceeded the value obtained from the other four animals (11.02 ± 2.22 %ID/g, mean ± SD) 2.0-fold or by more than 4 standard deviations Due to the uncertainty whether these huge deviations arise from an experimental error or might be related to strongly deviating metabolic processes e.g. abnormal kidney function in mouse #3, the study primarily presents and discusses the data set based on the other four animals (n = 4, "data set II"). A thorough evaluation and comparison was, however, also carried out including mouse #3.

[4] = 6 h p.i., male LNCaP tumor-bearing CB17-SCID mice, mean, n = 4-5
[5] = 6 h p.i., mean of ratios of individual animals, n = 4-5
[6] = 6 h p.i., relative to [^99mTc]Tc-PSMA-I&S

T1 sequence (Q04609 whole entry): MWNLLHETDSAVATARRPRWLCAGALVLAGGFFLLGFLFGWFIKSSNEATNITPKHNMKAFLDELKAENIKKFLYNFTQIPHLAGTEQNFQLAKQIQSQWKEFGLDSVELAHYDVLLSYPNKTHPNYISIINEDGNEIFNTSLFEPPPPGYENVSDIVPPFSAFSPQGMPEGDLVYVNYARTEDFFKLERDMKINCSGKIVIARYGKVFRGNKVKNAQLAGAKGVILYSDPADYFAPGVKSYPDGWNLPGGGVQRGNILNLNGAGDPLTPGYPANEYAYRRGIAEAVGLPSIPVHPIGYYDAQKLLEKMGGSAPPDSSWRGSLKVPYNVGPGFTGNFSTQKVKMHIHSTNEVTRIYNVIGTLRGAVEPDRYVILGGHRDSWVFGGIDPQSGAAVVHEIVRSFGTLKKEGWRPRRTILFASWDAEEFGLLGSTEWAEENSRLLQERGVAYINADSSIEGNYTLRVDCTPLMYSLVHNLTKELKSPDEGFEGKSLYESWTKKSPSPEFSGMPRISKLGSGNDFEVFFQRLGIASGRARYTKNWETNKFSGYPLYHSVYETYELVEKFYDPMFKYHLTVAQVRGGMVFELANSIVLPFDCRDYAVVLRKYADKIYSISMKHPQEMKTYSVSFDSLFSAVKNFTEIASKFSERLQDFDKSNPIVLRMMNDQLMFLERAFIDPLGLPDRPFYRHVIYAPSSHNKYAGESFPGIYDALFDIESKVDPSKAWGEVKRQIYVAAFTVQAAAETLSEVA
T2 sequence (P02768 25-609): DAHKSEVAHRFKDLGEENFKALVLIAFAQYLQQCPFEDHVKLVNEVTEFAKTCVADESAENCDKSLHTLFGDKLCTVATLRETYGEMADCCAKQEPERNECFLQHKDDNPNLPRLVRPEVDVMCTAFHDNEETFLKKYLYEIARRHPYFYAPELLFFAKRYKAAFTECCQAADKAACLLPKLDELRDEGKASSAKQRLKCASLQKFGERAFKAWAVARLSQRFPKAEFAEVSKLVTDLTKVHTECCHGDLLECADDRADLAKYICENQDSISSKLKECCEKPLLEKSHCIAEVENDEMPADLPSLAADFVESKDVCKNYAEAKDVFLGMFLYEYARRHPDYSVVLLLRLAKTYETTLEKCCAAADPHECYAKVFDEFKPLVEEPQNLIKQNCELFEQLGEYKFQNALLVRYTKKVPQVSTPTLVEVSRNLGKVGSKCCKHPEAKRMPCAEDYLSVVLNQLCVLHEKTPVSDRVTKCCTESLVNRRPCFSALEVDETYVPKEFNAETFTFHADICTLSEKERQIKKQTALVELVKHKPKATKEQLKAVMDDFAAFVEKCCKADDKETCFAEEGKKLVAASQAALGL

Q: Which inverse IC50 [1] does the source give for `CC(C)(C)[Si](O)(c1ccc(C(=O)NC[C@@H](NC(=O)[C@@H](CCC(=O)O)NC(=O)C(CNCCN)CNCCN)C(=O)N[C@H](CCCCNC(=O)CCC(=O)NCCC[C@@H](NC(=O)CC[C@H](NC(=O)N[C@@H](CCC(=O)O)C(=O)O)C(=O)O)C(=O)O)C(=O)O)cc1)C(C)(C)C.[O]=[99Tc+]=[O]` [[^99mTc]Tc-N4-PSMA-12] here?
A: The inverse IC50 was 11 ± 2.8 nM.

Q: What about the “HSA-binding (HPAC) (%)” value [2] of the same compound?
A: Its value is 47.7%.

Q: What about the “uptake in % iD/g adrenals” value [3, 4] of the same compound?
A: Its value is 0.6570 % ID/g.

Q: What about the “uptake in % iD/g blood” value [3, 4] of the same compound?
A: Its value is 0.0200 ± 0.0044 % ID/g and 0.0200 % ID/g.

Q: What about the “uptake in % iD/g bone” value [3, 4] of the same compound?
A: The value was 0.0365 % ID/g.

Q: What about the “uptake in % iD/g heart” value [3, 4] of the same compound?
A: The value was 0.0274 % ID/g.

Q: What about the “uptake in % iD/g intestine” value [3, 4] of the same compound?
A: The value was 0.5391 % ID/g.

Q: What about the “uptake in % iD/g kidney” value [3, 4] of the same compound?
A: The value was 12.3 ± 8.0 % ID/g and 12.2924 % ID/g.

Q: What about the “uptake in % iD/g liver” value [3, 4] of the same compound?
A: The value was 0.1796 % ID/g.

Q: What about the “uptake in % iD/g lung” value [3, 4] of the same compound?
A: Its value is 0.0613 % ID/g.

Q: And the “uptake in % iD/g muscle” value [3, 4]?
A: Its value is 0.0110 % ID/g.

Q: And the “uptake in % iD/g pancreas” value [3, 4]?
A: The value was 0.0206 % ID/g.

Q: And the “uptake in % iD/g parotid gland” value [3, 4]?
A: The value was 0.0804 % ID/g.

Q: What about the “uptake in % iD/g spleen” value [3, 4] of the same compound?
A: The value was 0.8928 % ID/g.

Q: What about the “uptake in % iD/g stomach” value [3, 4] of the same compound?
A: The value was 0.0988 % ID/g.

Q: And the “uptake in % iD/g submandibular gland” value [3, 4]?
A: The value was 0.1450 % ID/g.

Q: What about the “uptake in % iD/g tumor” value [3, 4] of the same compound?
A: The value was 13.0231 % ID/g.

Q: And the tumor-to-background ratio adrenals [3, 5]?
A: The tumor-to-background ratio adrenals was 22.15.

Q: What about the tumor-to-background ratio blood [3, 5] of the same compound?
A: Its tumor-to-background ratio blood is 658 ± 147 and 657.74.

Q: And the tumor-to-background ratio bone [3, 5]?
A: Its tumor-to-background ratio bone is 384.40.

Q: What about the tumor-to-background ratio heart [3, 5] of the same compound?
A: The tumor-to-background ratio heart was 484.90.

Q: And the tumor-to-background ratio intestine [3, 5]?
A: The tumor-to-background ratio intestine was 57.76.

Q: What about the tumor-to-background ratio kidney [3, 5] of the same compound?
A: Its tumor-to-background ratio kidney is 1.64 ± 1.29 and 1.64.

Q: And the tumor-to-background ratio liver [3, 5]?
A: Its tumor-to-background ratio liver is 79.92.

Q: What about the tumor-to-background ratio lung [3, 5] of the same compound?
A: Its tumor-to-background ratio lung is 216.68.

Q: And the tumor-to-background ratio muscle [3, 5]?
A: Its tumor-to-background ratio muscle is 1265.34.

Q: What about the tumor-to-background ratio pancreas [3, 5] of the same compound?
A: Its tumor-to-background ratio pancreas is 637.21.

Q: And the “tumor-to-background ratio parotid gland” value [3, 5]?
A: The value was 177.38.

Q: And the tumor-to-background ratio spleen [3, 5]?
A: Its tumor-to-background ratio spleen is 17.89.

Q: What about the tumor-to-background ratio stomach [3, 5] of the same compound?
A: The tumor-to-background ratio stomach was 158.87.

Q: What about the “tumor-to-background ratio submandibular gland” value [3, 5] of the same compound?
A: Its value is 90.45.

Q: And the “fold T/blood-ratio in comparison with [^99mTc]Tc-PSMA-I&S” value [3, 6]?
A: Its value is 3 fold.

Q: What about the “fold T/kidney-ratio in comparison with [^99mTc]Tc-PSMA-I&S” value [3, 6] of the same compound?
A: The value was 20 fold.

Q: And the “fold decrease of blood activity at 6 h p.i.” value ([3]; relative to [^99mTc]Tc-PSMA-I&S)?
A: The value was 3.6 fold.
